Results published in US20100113415A1, “EPHA4 RTK INHIBITORS FOR TREATMENT OF NEUROLOGICAL AND NEURODEGENERATIVE DISORDERS AND CANCER” (priority 2008, published 2010).

Tests used:
[1] = molecular target: T1, human form of EphA4 receptor over-expressed in CHO-K1 cells (Homo sapiens, UniProt P54764); assay: EphA4 cell-based assay (pGAS-Luc luciferase reporter in EphA4-transfected CHO-K1 cells); conditions: for IC50: inflexion point, luciferase, read-out: EphA4 Cell Assay IP; for EphA4 Cell Assay maximum percent inhibition: value in parentheses
T1 construct: expressed in transfected cells; host or cells: CHO-K1
T1 sequence (P54764 20-986): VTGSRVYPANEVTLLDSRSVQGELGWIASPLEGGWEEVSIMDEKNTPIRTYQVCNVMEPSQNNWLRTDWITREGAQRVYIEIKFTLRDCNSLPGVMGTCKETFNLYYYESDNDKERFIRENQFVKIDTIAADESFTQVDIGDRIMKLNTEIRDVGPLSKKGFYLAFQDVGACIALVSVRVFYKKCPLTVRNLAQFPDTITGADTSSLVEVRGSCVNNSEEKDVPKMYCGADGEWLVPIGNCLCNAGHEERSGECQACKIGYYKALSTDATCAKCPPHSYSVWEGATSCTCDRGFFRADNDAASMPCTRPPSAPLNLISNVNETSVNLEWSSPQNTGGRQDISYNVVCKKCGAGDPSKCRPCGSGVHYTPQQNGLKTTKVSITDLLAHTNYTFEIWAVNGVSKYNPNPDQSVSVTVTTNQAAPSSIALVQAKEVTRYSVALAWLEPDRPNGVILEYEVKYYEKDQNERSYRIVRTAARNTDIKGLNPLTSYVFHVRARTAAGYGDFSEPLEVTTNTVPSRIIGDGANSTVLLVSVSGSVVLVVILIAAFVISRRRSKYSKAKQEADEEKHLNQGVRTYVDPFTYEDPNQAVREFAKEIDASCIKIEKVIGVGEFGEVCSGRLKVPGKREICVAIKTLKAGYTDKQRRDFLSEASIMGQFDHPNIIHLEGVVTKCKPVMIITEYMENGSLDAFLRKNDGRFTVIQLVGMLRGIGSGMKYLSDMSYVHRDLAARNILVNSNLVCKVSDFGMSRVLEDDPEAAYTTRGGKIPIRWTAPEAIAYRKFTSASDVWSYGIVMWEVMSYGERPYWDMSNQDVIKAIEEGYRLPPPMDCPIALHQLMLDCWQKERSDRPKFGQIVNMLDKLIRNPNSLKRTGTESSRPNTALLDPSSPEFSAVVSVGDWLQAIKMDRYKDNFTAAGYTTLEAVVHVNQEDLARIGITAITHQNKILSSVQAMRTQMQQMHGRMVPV
Source text: A cell-based assay was used to measure the potency of the compounds on the human form of EphA4 receptor over-expressed in Chinese Hamster Ovary cell line, CHO-K1 cells (Merck Collection). The cell assay was based on a novel signaling pathway of EphA4, which involves activation of the tyrosine kinase Jak2 and the transcriptional activator Stat3 (39).
Reagents: The expression constructs of EphA4 were subcloned into the expression vector pCMV6-XL5 (Origene, MD, USA) (clone from Merck Kinase Library). The luciferase construct that was linked to the Stat1-responsive enhancer (pGAS-Luc) was bought from Stratagene (USA). The renilla construct that linked to an empty vector CMV was bought from Promega (USA).
Transfection and Luciferase Assay: CHO-K1 cells were plated in T-175 cell culture bottle in DMEM medium supplemented with 10% fetal bovine serum, 1 mM sodium pyruvate, 2 mM L-glutamine and 1.5 g/L sodium bicarbonate. When cell reached 70-80% confluence, transfections were performed in T-175 culture flasks, using Lipofectamine 2000™ transfection reagent (Invitrogen) according to the manufacturer's directions. For the luciferase assay CHO-K1 cells were co-transfected the next day with 50 μg of pGAS-Luc, 70 μg of EphA4, and 5 μg of empty vector pRL-CMV, which encoded the Renilla luciferase, and was included in the transfection mix for normalization. Six hours after transfection the cells were trypsinized and plated at 4.105 cells/ml into 96 well Black/Clear Poly-D-Lysine coated plates (Biocoat) that had been pre-spotted with compounds. Cells were lysed the next day using the Reporter Lysis Buffer (Promega), and the luciferase activity was measured using the Dual Luciferase Assay (Promega) following the manufacturer's directions. The Firefly and Renilla luminescences are read consecutively on a Top-Count (Perkin-Elmer). Results are expressed as a ratio of the two luminescence: Firefly Luciferase/Renilla Luciferase. Cell viability was assessed on parallel plates using the Cell Glo Assay (Promega) following the manufacturer's directions. Results are expressed as percent of cell death in comparison with vehicle-treated wells.
Compounds were titrated in duplicate at 10 points concentration starting at 100 μM with a 1.5 fold increment. Concentration-response curves were represented and the concentrations at the inflexion point (IP) were calculated. The maximum effect was given by the maximum percent inhibition calculated from the results of the control wells (containing only DMSO).

C2C12 cells = assay: Toxicity (percent of cell death), C2C12 cells; assay type: cell-based; conditions: 20 μM
Experimental: (§1) EphA4 kinase inhibition is assessed by both an enzymatic assay measuring the phosphorylation of a purified recombinant EphA4 kinase and a cell-based assay using the activation of pGas-Luciferase system in EphA4-transfected CHO-K1 cells. The functional effects of EphA4 RTK inhibitors on cell motility and proliferation is evaluated by the scratch wound assay. The effect of EphA4 RTK inhibitors is also directly measured on the cell confluence. The counterscreen assays (cell counterscreen, Src, Jak2 and P38α kinase) identified other potential inhibitory activities of compounds unrelated to EphA4 kinase. The toxicity is measured by the percent of cell death in the different cell assays. Values represent IC50 and IP in μM calculated from the dose-response curves. Values in parentheses give the maximum percent inhibition.

[2] = tested on: C2C12 mouse myoblast cell line; assay: Scratch wound assay, C2C12 cells; assay type: cell-based; conditions: from AUC of % wound confluence; for IC50: Mus musculus, C2C12, inflexion point, read-out: Scratch Assay C2C12 Cells IP
Experimental: Cell Cultures: C2C12 mouse myoblast cell line (ATCC, VA, USA) was maintained in culture in DMEM media supplemented with 10% fetal bovine serum, 1 mM sodium pyruvate, 1.5 g/L sodium bicarbonate, and 100 IU of penicillin, […] of streptomycin. The cells were then differentiated into myotubes with DMEM supplemented with 2% horse serum for 3 days in 24 well ImageLock™ plate (Essen Instruments, MI, USA).
Scratch wound assays are commonly used to assess the effects of drugs and drug candidates on the cellular proliferation and/or migration associated with wound closing. The IncuCyte™ system (Essen Instruments, MI, USA), an automated imaging platform, provides ongoing, real-time images and quantitative data generated throughout the wound-closing process. Cells were maintained in 24 well ImageLock™ (Essen Instruments, MI, USA) at 37° C. and 95% CO2/5% O2, until a confluent monolayer was achieved. A single scratch wound was then created in each well using the Essen Woundmaker™ (Essen Instruments, MI, USA). It induced a mechanical scratch of the cell monolayer using plastic pipette tips (10-20 μl pipette tips, Eppendorff). Dead cells and other debris produced by the scratch were immediately washed with regular growth media. Cells were then treated with pharmacological agents and were placed into the IncuCyte™ at 37° C. and 95% CO2/5% O2, for two to three days. During this time, the wound area within each well was repeatedly imaged at fixed time intervals (every three hours). The IncuCyte™ scratch wound software generates a “wound mask” for each well. An initial wound mask is created for the first image (at time 0) that clearly delineates the border of the wound. A revised mask is generated for each subsequent image to track wound closure. Wound closure can be automatically monitored using the wound confluence (% confluence). Wound confluence can be graphed over time to evaluate the characteristics of wound closing in the presence of pharmacological agents.
The calculation of the area under the curve (AUC) of the % confluence function of the time gave a quantitative measurement of compounds efficacy on the scratch wound closing. Compounds were titrated in quadruplicate at 5 points concentration starting at 20 μM with a two-fold increment. The percentage of inhibition was calculated from the AUCs at each dose in comparison with the AUCs of the control wells (1% DMSO). Concentration-response curves were represented and the concentrations at the inflexion point (IP) were calculated. The maximum effect was given by the maximum percent inhibition.

[3] = tested on: Primary Rat cortical astrocytes; assay: Toxicity (percent of cell death), astrocytes; assay type: cell-based; conditions: at 20 μM
Experimental: as §1

SMILES	IC50 [1] [µM]	EphA4 Cell Assay maximum percent inhibition [1] [%]	Max Toxicity C2C12 in cells % of cell death (C2C12 cells) [%]	IC50 [2] [nM]	Scratch Assay C2C12 Cells max inhibition in % [2] [%]	Max Toxicity Astrocytes % of cell death [3] [% at 20 μM]
CC1CCc2c(-c3ccccc3Cl)nc3[nH]nc(N)c3c2C1 (stereo not drawn) [Example 63]	7.2	55	3	3100	46	5
Cc1ccccc1-c1nc2[nH]nc(N)c2c2c1CCC(C)(C)C2 [Example 67]	2.3	46	10	500	78	12.5
